Data published in paper PMC4694659, “Biochemical Characterization of Medaka (Oryzias latipes) Transglutaminases, OlTGK1 and OlTGK2, as Orthologues of Human Keratinocyte-Type Transglutaminase” (PLoS ONE, 2015).

Tests used:
[1] = biological target: T1, OlTGK2 (Oryzias latipes, UniProt A0A0S3Q1B1); experiment: microplate transamidation: incorporation of bio-Cd into coated beta-casein, streptavidin-peroxidase read-out; type: biochemical; settings: amine acceptor substrate; co-substrate beta-casein (coated); CaCl2; Tris-Cl pH 8.0; 25 °C; 20 min; labelled compound
T1 construct: full-length ORF (2340 bp, 778 residues as printed), N-terminal hexahistidine tag, pET24d, E. coli BL21(DE3)LysS; NBRP cDNA clone olsp48d24 (fish kept: Cab strain)
T1 sequence (A0A0S3Q1B1 1-779): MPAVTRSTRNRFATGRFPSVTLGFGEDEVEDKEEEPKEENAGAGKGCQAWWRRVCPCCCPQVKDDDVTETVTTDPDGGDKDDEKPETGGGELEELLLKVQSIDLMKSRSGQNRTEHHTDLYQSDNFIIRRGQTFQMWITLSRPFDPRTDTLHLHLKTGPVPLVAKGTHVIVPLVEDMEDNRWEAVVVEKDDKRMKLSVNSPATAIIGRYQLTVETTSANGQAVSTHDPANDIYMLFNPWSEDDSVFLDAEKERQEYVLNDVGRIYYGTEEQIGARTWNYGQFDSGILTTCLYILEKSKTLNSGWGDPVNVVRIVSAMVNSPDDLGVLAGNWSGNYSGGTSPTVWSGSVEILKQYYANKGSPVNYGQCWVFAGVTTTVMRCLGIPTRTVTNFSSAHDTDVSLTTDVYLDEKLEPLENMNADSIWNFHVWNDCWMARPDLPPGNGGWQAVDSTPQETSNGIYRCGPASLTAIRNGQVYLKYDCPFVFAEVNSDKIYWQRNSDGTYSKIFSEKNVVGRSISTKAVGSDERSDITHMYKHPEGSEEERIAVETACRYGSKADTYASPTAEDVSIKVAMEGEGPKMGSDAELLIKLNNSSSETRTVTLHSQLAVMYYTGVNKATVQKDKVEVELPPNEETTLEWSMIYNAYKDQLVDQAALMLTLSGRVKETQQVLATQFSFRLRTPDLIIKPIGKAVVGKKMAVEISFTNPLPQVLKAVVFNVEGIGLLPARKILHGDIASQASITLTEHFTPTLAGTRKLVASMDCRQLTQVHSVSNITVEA

[2] = biological target: T2, OlTGK1 (Oryzias latipes, UniProt A0A0S3Q197); experiment: as above; type: biochemical; settings: amine acceptor substrate; co-substrate beta-casein (coated); CaCl2; Tris-Cl pH 8.0; 25 °C; 20 min; labelled compound
T2 construct: full-length ORF (2067 bp, 688 residues), N-terminal hexahistidine tag, pET24d, E. coli BL21(DE3)LysS; cDNA cloned from embryonic medaka cDNA library (fish kept: Cab strain)
T2 sequence (A0A0S3Q197 1-688): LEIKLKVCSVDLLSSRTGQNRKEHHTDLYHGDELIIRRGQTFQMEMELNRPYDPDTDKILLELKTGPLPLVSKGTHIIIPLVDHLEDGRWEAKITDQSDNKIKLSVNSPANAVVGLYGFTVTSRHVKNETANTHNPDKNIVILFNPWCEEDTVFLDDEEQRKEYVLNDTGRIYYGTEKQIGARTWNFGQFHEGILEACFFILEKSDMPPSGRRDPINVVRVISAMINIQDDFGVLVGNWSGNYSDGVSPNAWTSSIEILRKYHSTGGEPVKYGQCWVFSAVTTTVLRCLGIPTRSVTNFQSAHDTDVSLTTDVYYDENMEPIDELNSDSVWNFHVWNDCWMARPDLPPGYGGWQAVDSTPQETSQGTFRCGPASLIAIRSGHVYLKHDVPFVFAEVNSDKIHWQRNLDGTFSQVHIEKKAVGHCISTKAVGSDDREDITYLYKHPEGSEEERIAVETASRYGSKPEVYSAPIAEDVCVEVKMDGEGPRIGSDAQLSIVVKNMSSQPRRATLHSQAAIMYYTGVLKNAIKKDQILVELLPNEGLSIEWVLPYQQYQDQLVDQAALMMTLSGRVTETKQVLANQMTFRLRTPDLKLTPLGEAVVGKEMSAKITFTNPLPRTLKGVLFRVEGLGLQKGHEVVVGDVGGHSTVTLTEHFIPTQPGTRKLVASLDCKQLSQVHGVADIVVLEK

## NCCCCCNC(=O)CCCC[C@@H]1SC[C@@H]2NC(=O)N[C@@H]21 [bio-Cd]
[1]
  microplate transamidation: incorporation of bio-Cd into coated beta-casein, stre: apparent incorporation was observed in the presence of three-different amounts of OlTGK1 and OlTGK2
[2]
  microplate transamidation: incorporation of bio-Cd into coated beta-casein, stre: apparent incorporation was observed in the presence of three-different amounts of OlTGK1 and OlTGK2
